In the experiment the test system is γ-secretase. The experiment can be described thus: Cellular γ-secretase assay (inhibition of Aβ42 secretion). Format: cell-based. Particulars: human neuroglioma H4 cells overexpressing human APP, 22 hrs incubation. The method, boiled down: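 H4 neuroglioma cells overexpressing human APP got a ten-point compound dilution (0.4% DMSO final) for 22 h at 37 °C. Secreted Aβ42 in the supernatant was measured by electrochemiluminescence sandwich immunoassay (capture biotinylated 6E10, detection ruthenylated BAP15). IC50 came from a nonlinear regression fit.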

Structures are written as SMILES. Counter-ions that a name gives are not always drawn.

As a reminder, the EC50 is the concentration needed to bring the measured effect to its halfway point. Compound `COc1cc(Nc2nc3n(n2)CCCC3c2ccc(F)cc2)ccc1-n1cnc(C)c1` (single isomer, unassigned) [Example 51] returned a 50% effective concentration (EC50) of 440 nM. Compound `CCOC(=O)c1cc(-c2ccc(F)c(Cl)c2)n2nc(Nc3ccc(-n4cnc(C)c4)c(OC)c3)nc2n1` [Example 94, Ethyl 7-(3-chloro-4-fluorophenyl)-2-(3-methoxy-4-(4-methyl-1H-imidazol-1-yl)phenylamino)-[1,2,4]triazolo[1,5-a]pyrimidine-5-carboxylate] registered a half-maximal effective concentration (EC50) of 39 nM. Next, `COc1cc(Nc2nc3cccc(N4CCCCC4)n3n2)ccc1-n1cnc(C)c1` [Example 33, [3-Methoxy-4-(4-methyl-imidazol-1-yl)-phenyl]-(5-piperidin-1-yl-[1,2,4]triazolo[1,5-a]pyridin-2-yl)-amine]: 556 nM. As for `COc1cc(Nc2nc3ncc(C#N)c(-c4cccc(C)c4)n3n2)ccc1-n1cnc(C)c1` [Example 40, 2-[3-Methoxy-4-(4-methyl-imidazol-1-yl)-phenylamino]-7-m-tolyl-[1,2,4]triazolo[1,5-a]pyrimidine-6-carbonitrile], the figure is 417 nM; as for `COc1cc(Nc2nc3c(-c4ccc(F)cc4F)cccn3n2)ccc1-n1cnc(C)c1` [Example 132, 8-(2,4-difluorophenyl)-N-(3-methoxy-4-(4-methyl-1H-imidazol-1-yl)phenyl)-[1,2,4]triazolo[1,5-a]pyridin-2-amine], 137 nM; as for `COc1cc(Nc2nc3nccc(-c4ccc(F)c(Cl)c4)n3n2)ccc1-n1cnc(C)c1` [Example 73, 7-(3-Chloro-4-fluorophenyl)-N-(3-methoxy-4-(4-methyl-1H-imidazol-1-yl)phenyl)-[1,2,4]triazolo[1,5-a]pyrimidin-2-amine hydrochloride], 359 nM. As for `COc1cc(Nc2nc3c(Oc4ccccc4)cccn3n2)ccc1-n1cnc(C)c1` [Example 136, N-(3-methoxy-4-(4-methyl-1H-imidazol-1-yl)phenyl)-8-phenoxy-[1,2,4]triazolo[1,5-a]pyridin-2-amine], the figure is 152 nM; as for `COCc1cnc(-c2ccccc2)n2nc(Nc3ccc(-n4cnc(C)c4)c(OC)c3)nc12` [Example 27, [3-Methoxy-4-(4-methyl-imidazol-1-yl)-phenyl]-(8-methoxymethyl-5-phenyl-[1,2,4]triazolo[1,5-c]pyrimidin-2-yl)-amine], 742 nM.

In turn, `COc1cc(Nc2nc3c(-c4ccc(F)c(C)c4)cc(C)cn3n2)ccc1-n1cnc(C)c1` [Example 76, 8-(4-Fluoro-3-methylphenyl)-N-(3-methoxy-4-(4-methyl-1H-imidazol-1-yl)phenyl)-6-methyl-[1,2,4]triazolo[1,5-a]pyridin-2-amine] returned an EC50 of 19 nM. The compound `COc1cc(Nc2nc3c(-c4ccc(F)cc4)cccn3n2)ccc1-n1cnc(C)c1` [Example 10, [8-(4-Fluoro-phenyl)-[1,2,4]triazolo[1,5-a]pyridin-2-yl]-[3-methoxy-4-(4-methyl-imidazol-1-yl)-phenyl]-amine] had a concentration for a half-maximal effect (EC50) of 60 nM.

`COc1cc(Nc2nc3nc4c(c(-c5ccccc5)n3n2)CCCC4)ccc1-n1cnc(C)c1` [Example 21, [3-Methoxy-4-(4-methyl-imidazol-1-yl)-phenyl]-(9-phenyl-5,6,7,8-tetrahydro-[1,2,4]triazolo[5,1-b]quinazolin-2-yl)-amine acetate] displayed an EC50 of 201 nM. Next, `COc1ccc2nc(Nc3ccc(-n4cnc(C)c4)c(OC)c3)nn2n1` [Example 42, [3-Methoxy-4-(4-methyl-imidazol-1-yl)-phenyl]-(6-methoxy-[1,2,4]triazolo[1,5-b]pyridazin-2-yl)-amine]: 1320 nM; `COc1cc(Nc2nc3c(-c4ccc(F)c(F)c4)cc(C4CC4)cn3n2)ccc1-n1cnc(C)c1` [Example 146, [6-Cyclopropyl-8-(3,4-difluoro-phenyl)-[1,2,4]triazolo[1,5-a]pyridin-2-yl]-[3-methoxy-4-(4-methyl-imidazol-1-yl)-phenyl]-amine]: 69 nM; `COc1cc(Nc2nc3cccc(-c4ccc(F)cc4)n3n2)ccc1-c1ccnc(C)c1` [Example 54, 5-(4-Fluorophenyl)-N-(3-methoxy-4-(2-methylpyridin-4-yl)phenyl)-[1,2,4]triazolo[1,5-a]pyridin-2-amine]: 110 nM. Next, `COc1cc(Nc2nc3c(-c4ccc(F)cc4Cl)cccn3n2)ccc1-c1ccnc(C)c1` [Example 133, [8-(2-Chloro-4-fluoro-phenyl)-[1,2,4]triazolo[1,5-a]pyridin-2-yl]-[3-methoxy-4-(2-methyl-pyridin-4-yl)-phenyl]-amine]: 45 nM; `COc1cc(Nc2nc3ncc(C#N)c(-c4ccccc4Cl)n3n2)ccc1-n1cnc(C)c1` [Example 38, 7-(2-Chloro-phenyl)-2-[3-methoxy-4-(4-methyl-imidazol-1-yl)-phenylamino]-[1,2,4]triazolo[1,5-a]pyrimidine-6-carbonitrile]: 578 nM.

The compound `COc1cc(Nc2nc3c(-c4ccc(N5CCOCC5)cc4)cc(C)cn3n2)ccc1-n1cnc(C)c1` [Example 82, N-(3-Methoxy-4-(4-methyl-1H-imidazol-1-yl)phenyl)-6-methyl-8-(4-morpholinophenyl)-[1,2,4]triazolo[1,5-a]pyridin-2-amine] came in with a 50% effective concentration (EC50) of 242 nM. As for `COc1cc(Nc2nc3c(-c4ccc(F)cc4Cl)cc(F)cn3n2)ccc1-n1cnc(C)c1` [Example 86, 8-(2-Chloro-4-fluorophenyl)-6-fluoro-N-(3-methoxy-4-(4-methyl-1H-imidazol-1-yl)phenyl)-[1,2,4]triazolo[1,5-a]pyridin-2-amine], the figure is 143 nM; as for `COc1cc(Nc2nc3n(n2)CCCN3c2ccc(F)c(F)c2)ccc1-n1cnc(C)c1` [Example 143, 4-(3,4-Difluorophenyl)-N-(3-methoxy-4-(4-methyl-1H-imidazol-1-yl)phenyl)-4,5,6,7-tetrahydro-[1,2,4]triazolo[1,5-a]pyrimidin-2-amine], 185 nM; as for `COc1cc(Nc2nc3c(-c4ccc(Cl)cc4CO)cc(C)cn3n2)ccc1-n1cnc(C)c1` [Example 92, (5-Chloro-2-(2-(3-methoxy-4-(4-methyl-1H-imidazol-1-yl)phenylamino)-6-methyl-[1,2,4]triazolo[1,5-a]pyridin-8-yl)phenyl)methanol], 375 nM.

Consider `COc1cc(Nc2nc3c(-c4ccc5c(c4)OCCN5C)cc(C)cn3n2)ccc1-n1cnc(C)c1` [Example 89, N-(3-Methoxy-4-(4-methyl-1H-imidazol-1-yl)phenyl)-6-methyl-8-(4-methyl-3,4-dihydro-2H-benzo[b][1,4]oxazin-7-yl)-[1,2,4]triazolo[1,5-a]pyridin-2-amine], for which a half-maximal response (EC50) required 290 nM. The EC50 values of the last two compounds are within 1.5-fold of each other.

Take `COc1cc(Nc2nc3c(-c4ccc(Cl)cc4)cc(C4CC4)cn3n2)ccc1-n1cnc(C)c1` [Example 117, [8-(4-Chloro-phenyl)-6-cyclopropyl-[1,2,4]triazolo[1,5-a]pyridin-2-yl]-[3-methoxy-4-(4-methyl-imidazol-1-yl)-phenyl]-amine]: the EC50 stood at 65 nM. Against the preceding compound, the EC50 is about 4.5-fold lower. Regarding `COc1cc(Nc2nc3c(-c4cccc(CNC(=O)OC(C)(C)C)c4)cc(C)cn3n2)ccc1-n1cnc(C)c1` [Example 95, tert-Butyl 3-(2-(3-methoxy-4-(4-methyl-1H-imidazol-1-yl)phenylamino)-6-methyl-[1,2,4]triazolo[1,5-a]pyridin-8-yl)benzylcarbamate], it took 84 nM to reach a half-maximal effect (EC50). Compound `COc1cc(Nc2nc3c(-c4ccc(F)c(F)c4)cccn3n2)ccc1-c1ccnc(C)c1` [Example 128, 8-(3,4-Difluorophenyl)-N-(3-methoxy-4-(2-methylpyridin-4-yl)phenyl)-[1,2,4]triazolo[1,5-a]pyridin-2-amine] showed a 50% effective concentration (EC50) of 30 nM. Next, `CCOC(=O)N1CC=C(c2cc(C)cn3nc(Nc4ccc(-n5cnc(C)c5)c(OC)c4)nc23)CC1` [Example 107, Ethyl 4-(2-(3-methoxy-4-(4-methyl-1H-imidazol-1-yl)phenylamino)-6-methyl-[1,2,4]triazolo[1,5-a]pyridin-8-yl)-5,6-dihydropyridine-1(2H)-carboxylate]: 356 nM. As for `COc1cc(Nc2nc3ncc(C#N)c(-c4ccccc4)n3n2)ccc1-n1cnc(C)c1` [Example 37, 2-[3-Methoxy-4-(4-methyl-imidazol-1-yl)-phenylamino]-7-phenyl-[1,2,4]triazolo[1,5-a]pyrimidine-6-carbonitrile], the figure is 260 nM; as for `COc1cc(Nc2nc3nccc(-c4ccncc4)n3n2)ccc1-n1cnc(C)c1` [Example 68, N-(3-Methoxy-4-(4-methyl-1H-imidazol-1-yl)phenyl)-7-(pyridin-4-yl)-[1,2,4]triazolo[1,5-a]pyrimidin-2-amine], 1170 nM.

With `COc1cc(Nc2nc3n(n2)CCCC3c2ccc(F)cc2)ccc1-n1cnc(C)c1` (racemic) [Example 1, [8-(4-Fluoro-phenyl)-5,6,7,8-tetrahydro-[1,2,4]triazolo[1,5-a]pyridin-2-yl]-[3-methoxy-4-(4-methyl-imidazol-1-yl)-phenyl]-amine], the 50% effective concentration (EC50) was 330 nM. This EC50 lies about 3.5-fold lower than the previous one. The compound `COc1cc(Nc2nc3cc(C(F)(F)F)ccn3n2)ccc1-n1cnc(C)c1` [Example 47, [3-Methoxy-4-(4-methyl-imidazol-1-yl)-phenyl]-(7-trifluoromethyl-[1,2,4]triazolo[1,5-a]pyridin-2-yl)-amine] gave an EC50 of 1340 nM. Next, `COc1cc(Nc2nc3cccc(N4CCCCCC4)n3n2)ccc1-n1cnc(C)c1` [Example 31, (5-Azepan-1-yl-[1,2,4]triazolo[1,5-a]pyridin-2-yl)-[3-methoxy-4-(4-methyl-imidazol-1-yl)-phenyl]-amine]: 587 nM; `COc1cc(Nc2nc3c(-c4ccc(F)c(F)c4F)ccc(C(C)(C)O)n3n2)ccc1-n1cnc(C)c1` [Example 122, 2-[2-[3-Methoxy-4-(4-methyl-imidazol-1-yl)-phenylamino]-8-(2,3,4-trifluoro-phenyl)-[1,2,4]triazolo[1,5-a]pyridin-5-yl]-propan-2-ol]: 79 nM.

The values above are taken from US20110190269A1, “GAMMA SECRETASE MODULATORS” (priority 2010, published 2011).
